Experimental data published in patent publication US20030162777A1, “Novel N-acylated heterocycles” (Recordati S.A., priority 2001, published 2003).

Columns and labels:
5-HT1A receptors = biological target: T1, 5-HT1A receptors (Rattus norvegicus, UniProt P19327); assay: Inhibition of stereotypy (rhythmic forepaw treading) induced by 8-OH-DPAT in rats (post-synaptic antagonism); assay type: in vivo; conditions: for post-synaptic 5-HT1A-receptor antagonist activity (in words) / inhibition at 1 mg/kg: 1 mg/kg p.o.; for post-synaptic 5-HT1A-receptor antagonist activity (in words): rats; for inhibition at 1 mg/kg / inhibition at 10 mg/kg: rat; for inhibition at 10 mg/kg: 10 mg/kg p.o.
T1 construct: from tissue; host or cells: whole animal: male Sprague-Dawley rats (post-synaptic 5-HT1A receptors)
T1 sequence (P19327 1-422): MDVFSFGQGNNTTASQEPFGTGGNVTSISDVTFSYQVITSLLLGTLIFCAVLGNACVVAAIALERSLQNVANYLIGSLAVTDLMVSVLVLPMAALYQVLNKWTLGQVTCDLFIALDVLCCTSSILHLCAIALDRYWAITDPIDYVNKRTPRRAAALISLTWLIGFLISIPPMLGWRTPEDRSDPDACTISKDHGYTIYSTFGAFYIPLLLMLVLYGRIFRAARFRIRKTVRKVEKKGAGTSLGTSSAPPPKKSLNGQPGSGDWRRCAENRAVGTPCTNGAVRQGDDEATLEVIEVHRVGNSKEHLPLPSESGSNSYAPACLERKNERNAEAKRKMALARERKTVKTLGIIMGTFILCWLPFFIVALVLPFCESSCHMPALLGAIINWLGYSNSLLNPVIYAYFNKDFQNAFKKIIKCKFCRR
Description: The inhibitory effect of 5-HT1A-receptor antagonists on stereotyped forepaw treading induced in rats by subcutaneous injection of 8-OH-DPAT was evaluated by the method of Tricklebank (Tricklebanket al., Eur. J. Pharmacol., 117: 15, 1985) with minor modifications as described below.
Male Sprague-Dawley rats [Crl: CD° (SD) BR] weighing 150-175 g from Charles River Italia were used. The animals were housed with free access to food and water and maintained on a forced 12-hour-light/12-hour-dark cycle at 22-24° C. of temperature. On the day of the experiment, the rats were placed singly in clear plastic containers, 10-15 minutes before administration of the vehicle or compounds to be tested. For evaluation of antagonistic activity after oral administration, the compounds were administered 0.5, 1 and 4 hours before induction of stereotypy by 8-OH-DPAT (1 mg/kg subcutaneously). Observation sessions lasted 30 seconds and began 3 minutes after 8-OH-DPAT treatment and were repeated every 3 minutes over a period of 15 minutes.
The appearance of the symptom induced by postsynaptic stimulation of 5-HT1A receptors was noted, and the intensity was scored using an intensity scale in which: 0=absent, 1=equivocal, 2=present and 3=intense. Behavioural scores for treated rats were accumulated throughout the observation time (5 observation periods) and expressed as mean values of 4 rats/dose. Change in mean values of treated animals in comparison with control (vehicle) group, expressed as per-cent inhibition, was used in order to quantify the antagonistic activity.

[1] = biological target: T2, human 5HT1A-serotonergic receptor (Homo sapiens, UniProt P08908); assay: Radioligand binding to recombinant 5-HT1A receptors; conditions: [3H]8-OH-DPAT 1 nM, membranes of HeLa cells with human 5-HT1A receptor; Ki from IC50 by Cheng & Prusoff; read-out: Binding affinity for 5HT1A receptors, Ki
T2 construct: expressed in transfected cells; host or cells: HeLa (human cell line), stably transfected; cell membranes used
T2 sequence (P08908 1-422): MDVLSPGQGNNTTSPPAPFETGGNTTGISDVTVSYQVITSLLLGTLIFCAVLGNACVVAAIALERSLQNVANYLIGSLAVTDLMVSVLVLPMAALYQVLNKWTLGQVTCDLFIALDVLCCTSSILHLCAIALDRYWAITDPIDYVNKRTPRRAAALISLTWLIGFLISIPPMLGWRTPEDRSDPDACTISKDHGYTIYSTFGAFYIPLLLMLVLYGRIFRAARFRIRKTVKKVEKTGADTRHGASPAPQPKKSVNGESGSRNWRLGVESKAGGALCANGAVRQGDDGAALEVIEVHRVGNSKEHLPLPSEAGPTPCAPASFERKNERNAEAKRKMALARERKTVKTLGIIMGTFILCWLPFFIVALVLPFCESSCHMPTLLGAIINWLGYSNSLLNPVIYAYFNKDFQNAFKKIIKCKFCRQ
How it was run: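 Displacement of 1 nM [3H]8-OH-DPAT (30 min, 30 °C, Tris-HCl pH 7.4 with MgCl2 and pargyline) from recombinant human 5-HT1A in transfected HeLa membranes, stopped by filtration. Specific binding defined against 10 μM 5-HT; IC50 by nonlinear fitting, then Ki by Cheng–Prusoff.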

anaesthetised rats = assay: Effects on rhythmic bladder-voiding contractions induced by bladder filling in anaesthetised rats; assay type: in vivo, rat; conditions: intravenous administration, urethane-anaesthetised rats; for ED50: Rattus norvegicus, read-out: ED50 frequency (extrapolated dose inducing a reduction of the number of contractions >30% in 50% of treated rats)
Description: Female Sprague-Dawley rats weighing 225-275 g (Crl: CDo Br, Charles River Italia) were used. The animals were housed with free access to food and water and maintained on a forced 12-hour alternating light-dark cycle at 22-24° C. for at least one week, except during the experiment. The activity on rhythmic bladder voiding contractions was evaluated according to the method of Dray (Dray J., Pharmacol. Methods, 13:157, 1985), with some modifications as in Guarneri (Guarneri, Pharmacol. Res. 27:173, 1993). Briefly, the rats were anaesthetised by subcutaneous injection of 1.25 g/kg (5 ml/kg) urethane, after which the urinary bladder was catheterised via the urethra using PE 50 polyethylene tubing filled with physiological saline. The catheter was tied in place with a ligature around the external urethral orifice and was connected to conventional pressure transducers (Statham P23 ID/P23 XL). […] The bladder was then filled via the recording catheter by incremental volumes of warm (37° C.) saline until reflex bladder-voiding contractions occurred (usually 0.8-1.5 ml). For intravenous injection of bioactive compounds, PE 50 polyethylene tubing filled with physiological saline was inserted into the jugular vein.
From the cystometrogram, the number of contractions recorded 15 minutes before (basal values) and after treatment, as well as the mean amplitude of these contractions (mean height of the peaks in mmHg), was evaluated.
Since most compounds produced an effect that was relatively rapid in onset and led to a complete cessation of bladder contractions, bioactivity was conveniently estimated by measuring the duration of bladder quiescence (i.e. the length of the time during which no contractions occurred). The number of tested animals showing a reduction in the number of contractions higher than 30% of that observed in the basal period was recorded too.
The extrapolated doses which induced a reduction in the number of contractions greater than 30% in 50% of the treated rats (ED50) were evaluated by the method of Bliss (Bliss C. I., Quart J. Pharm. Pharmacol. 11, 192-216, 1938).

[2] = 0.5 h before 8-OH-DPAT (1 mg/kg s.c.)
[3] = 1 h before 8-OH-DPAT (1 mg/kg s.c.)
[4] = 4 h before 8-OH-DPAT (1 mg/kg s.c.)

SMILES | inhibition at 10 mg/kg (5-HT1A receptors; [3]) | inhibition at 10 mg/kg (5-HT1A receptors; [4]) | Ki [1] | ED50 (anaesthetised rats) | ED10 min (extrapolated dose inducing 10 minutes of disappearance of the contractions) (anaesthetised rats) | also measured
O=C(C1CCCCC1)N1c2ccccc2CCC1CN1CCN(c2cccc3[nH]ccc23)CC1 (single isomer, unassigned; (-)) [(−)-1, (−)-1-(1-Cyclohexanecarbonyl-1,2,3,4-tetrahydroquinoline-2-ylmethyl)-4-(4-indolyl)piperazine] | – | – | – | – | – | post-synaptic 5-HT1A-receptor antagonist activity (in words) (5-HT1A receptors): devoid of activity; inhibition at 1 mg/kg (5-HT1A receptors; [2]): 19%; inhibition at 1 mg/kg (5-HT1A receptors; [3]): 5%; inhibition at 1 mg/kg (5-HT1A receptors; [4]): 9%
O=C(C1CC=CCC1)N1c2ccccc2CCC1CN1CCN(c2cccc3[nH]ccc23)CC1 (centres unmarked) [Example 24A1, 1-(1-Cyclohex-3-enylcarbonyl-1,2,3,4-tetrahydroquinoline-2-ylmethyl)-4-(4-indolyl)piperazine] | 100% | 100% | 2.6 nM | – | – | inhibition at 10 mg/kg (5-HT1A receptors; [2]): 100%
O=C(C1CCCCC1)N1c2ccccc2CCC1CN1CCN(c2cccc3[nH]ccc23)CC1 (single isomer, unassigned; (+)) [Example (+)-1, (+)-1-(1-Cyclohexanecarbonyl-1,2,3,4-tetrahydroquinoline-2-ylmethyl)-4-(4-indolyl)piperazine] | – | – | 0.2 nM | 0.024 mg/kg | 0.072 mg/kg | post-synaptic 5-HT1A-receptor antagonist activity (in words) (5-HT1A receptors): significant and complete inhibition of the symptom up to 4 hours after administration; inhibition at 1 mg/kg (5-HT1A receptors; [2]): 100%; inhibition at 1 mg/kg (5-HT1A receptors; [3]): 100%; inhibition at 1 mg/kg (5-HT1A receptors; [4]): 98%
Cc1c(-c2ccccc2)oc2c(C(=O)OCCN3CCCCC3)cccc2c1=O [Flavoxate, flavoxate, reference compound] | – | – | – | 2.65 mg/kg | >10 mg/kg | –
COc1ccccc1N1CCN(CCC2CCc3ccccc3N2C(=O)C2CCCCC2)CC1 (centres unmarked) [Example 3, 1-[2-(1-Cyclohexanecarbonyl-1,2,3,4-tetrahydroquinoline-2-yl)ethyl]-4-(2-methoxyphenyl)piperazine] | – | – | 8.4 nM | 0.02 mg/kg | 0.08 mg/kg | –
O=C(C1CCCCC1)N1c2ccc(F)cc2CCC1CN1CCN(c2cccc3[nH]ccc23)CC1 (centres unmarked) [Example 18, 1-(1-Cyclohexanecarbonyl-6-fluoro-1,2,3,4-tetrahydroquinoline-2-ylmethyl)-4-(4-indolyl)piperazine] | 92% | 92% | 2.8 nM | – | – | inhibition at 10 mg/kg (5-HT1A receptors; [2]): 98%
Cc1[nH]c2cccc(N3CCN(CC4CCc5ccccc5N4C(=O)C4CCCCC4)CC3)c2c1C (centres unmarked) [Example 35A13, 1-(1-Cyclohexanecarbonyl-1,2,3,4-tetrahydroquinoline-2-ylmethyl)-4-(2,3-dimethyl-4-indolyl)piperazine] | 95% | 100% | 4 nM | – | – | –
COc1ccccc1N1CCN(CC2CCc3ccccc3N2C(=O)C2CCCCC2)CC1 (centres unmarked) [Example 2, 1-(1-Cyclohexanecarbonyl-1,2,3,4-tetrahydroquinoline-2-ylmethyl)-4-(2-methoxyphenyl)piperazine] | – | – | 0.3 nM | 0.172 mg/kg | 0.383 mg/kg | –
O=C(C1CCCCC1)N1c2cc(F)ccc2CCC1CN1CCN(c2cccc3[nH]ccc23)CC1 (centres unmarked) [Example 46, 1-(1-Cyclohexanecarbonyl-7-fluoro-1,2,3,4-tetrahydroquinoline-2-ylmethyl)-4-(4-indolyl)piperazine] | – | – | 11.2 nM | – | – | –
O=C(CCOCc1ccccc1)N1c2ccccc2CCC1CN1CCN(c2ccccc2OCC(F)(F)F)CC1 (centres unmarked) [Example 8, 1-[1-(3-Benzyloxypropionyl)-1,2,3,4-tetrahydroquinoline-2-ylmethyl]-4-[2-(2,2,2-trifluoroethoxy)phenyl]piperazine] | – | – | 10.3 nM | – | – | –
O=C(C1CCCCC1)N1c2ccccc2CCC1CN1CCN(c2ccccc2OCC(F)(F)F)CC1 (centres unmarked) [Example 4, 1-(1-Cyclohexanecarbonyl-1,2,3,4-tetrahydroquinoline-2-ylmethyl)-4-[2-(2,2,2-trifluoroethoxy)phenyl]piperazine] | – | – | 0.7 nM | – | – | –
O=C(C1CCCC1)N1c2ccccc2CCC1CN1CCN(c2cccc3[nH]ccc23)CC1 (centres unmarked) [Example 24A3, 1-(1-Cyclopentanecarbonyl-1,2,3,4-tetrahydroquinoline-2-ylmethyl)-4-(4-indolyl)piperazine] | 93% | 100% | 5.4 nM | – | – | inhibition at 10 mg/kg (5-HT1A receptors; [2]): 100%
Cc1oc(S(=O)(=O)N2CCCCC2)cc1C(=O)N1c2ccccc2CCC1CN1CCN(c2cccc3[nH]ccc23)CC1 (centres unmarked) [Example 68A55, 1-(4-Indolyl)-4-[1-(2-methyl-5-piperidin-1-ylsulfonylfuran-3-carbonyl)-1,2,3,4-tetrahydroquinoline-2-ylmethyl]piperazine] | – | – | 14.3 nM | – | – | –
